Results published in patent US20190062749A1, “SIRNA, PHARMACEUTICAL COMPOSITION AND CONJUGATE WHICH CONTAIN SIRNA, AND USES THEREOF” (priority 2015, published 2019).
Where two headings read alike, the source gives them in different places. Oligonucleotides are written 5' to 3', each unit as a sugar letter and its base; * is a phosphorothioate linkage, no mark a phosphodiester; rarer units and linkages stand in square brackets, end groups in braces. Plain capitals give the bases only. d = 2'-deoxy (DNA); m = 2'-O-methyl; r = 2'-OH (RNA); f = 2'-fluoro

Tests used:
[1] = Stability of siRNAs in human plasma in vitro (gel, ratio of the longest fragments RL); assay type: in vitro ADME
Procedure: The siRNAs (20 μM, 10 μl) obtained in Preparation Example 1 were incubated with 50% human plasma (HP) at 37° C. in vitro for a certain time and samples were taken therefrom. Specifically, 10 μl samples were taken at 0, 2, 4, 6, 8, 24 and 48 hours respectively and immediately snap frozen in liquid nitrogen, followed by cryopreservation at −80° C. for future use. 20 wt % non-denaturing polyacrylamide gel was formulated, and 10 μl 5-fold diluted above samples (dilution solution: 1×PBS buffer at pH 7.4) and 4 μl loading buffer (20 mM EDTA, 36 wt % glycerol, 0.06 wt % bromophenol blue) were mixed and then loaded into the gel to perform electrophoresis for about 60 minutes under 80 mA constant current. After electrophoresis finished, the gel was stained with 1× Sybr Gold dye (Invitrogen, Cat. 11494) for 15 minutes followed by imaging.
The ratio of the longest fragments remained after incubating the test siRNAs and control siRNAs with human plasma to the longest fragments of the siRNAs without the treatment of human plasma (i.e., the markers shown in FIG. 3) (also referred to as ratio of the longest fragments, RL) is calculated by reading the grayscale values quantitatively.

[2] = prior application CN102140461B; cited from earlier work
HBV gene = settings: prior application CN102140461B; cited from earlier work

For “NC: negative control siRNA; sense UUCUCCGAACGUGUCACGUdTdT, antisense ACGUGACACGUUCGGAGAAdTdT (sense UUCUCCGAACGUGUCACGUTT; antisense ACGUGACACGUUCGGAGAATT; further chemistry not given here) [reference compound]”, the “RL (ratio of the longest fragments) 0 h” value [1] was 100.0%, the “RL (ratio of the longest fragments) 2 h” value [1] was 83.9% and the “RL (ratio of the longest fragments) 4 h” value [1] was 69.7%. For the same substance, the “RL (ratio of the longest fragments) 6 h” value [1] was 58.4%, the “RL (ratio of the longest fragments) 8 h” value [1] was 52.6% and the “RL (ratio of the longest fragments) 24 h” value [1] was 36.2%. The “RL (ratio of the longest fragments) 48 h” value [1] was 26.0%.
With “14d: sense CmCmUmUmGAGGCmAUmACmUmUmCmAAAdTdT, antisense UfUmUfGAAGUfAUfGCCUCAAGGdTdT (sense mCmCmUmUrGrArGrGmCrAmUrAmCmUmUmCrArArAdTdT; antisense fUmUfUrGrArArGfUrAfUrGrCrCrUrCrArArGrGdTdT)” the “RL (ratio of the longest fragments) 0 h” value ([1]; 50% human plasma, 37° C., 0 h) was 100.0%, the “RL (ratio of the longest fragments) 2 h” value ([1]; 50% human plasma, 37° C., 2 h) was 94.6% and the “RL (ratio of the longest fragments) 4 h” value ([1]; 50% human plasma, 37° C., 4 h) was 90.0%. The “RL (ratio of the longest fragments) 6 h” value ([1]; 50% human plasma, 37° C., 6 h) was 85.6%, the “RL (ratio of the longest fragments) 8 h” value ([1]; 50% human plasma, 37° C., 8 h) was 86.0% and the “RL (ratio of the longest fragments) 24 h” value ([1]; 50% human plasma, 37° C., 24 h) was 78.0%. For the same substance, the “RL (ratio of the longest fragments) 48 h” value ([1]; 50% human plasma, 37° C., 48 h) was 84.6%.
For “2d: sense CmCmUmUmGAGGCmAUmACmUmUmCmAAAdTdT, antisense UfUUfGAAGUfAUfGCCUfCAAGGdTdT (sense mCmCmUmUrGrArGrGmCrAmUrAmCmUmUmCrArArAdTdT; antisense fUrUfUrGrArArGfUrAfUrGrCrCfUrCrArArGrGdTdT)”, the “RL (ratio of the longest fragments) 0 h” value ([1]; 50% human plasma, 37° C., 0 h) was 100.0%, the “RL (ratio of the longest fragments) 2 h” value ([1]; 50% human plasma, 37° C., 2 h) was 97.6% and the “RL (ratio of the longest fragments) 4 h” value ([1]; 50% human plasma, 37° C., 4 h) was 88.2%. For the same substance, the “RL (ratio of the longest fragments) 6 h” value ([1]; 50% human plasma, 37° C., 6 h) was 82.2%, the “RL (ratio of the longest fragments) 8 h” value ([1]; 50% human plasma, 37° C., 8 h) was 84.5% and the “RL (ratio of the longest fragments) 24 h” value ([1]; 50% human plasma, 37° C., 24 h) was 82.1%. The “RL (ratio of the longest fragments) 48 h” value ([1]; 50% human plasma, 37° C., 48 h) was 78.4%.
In the case of “X2M2(S++): sense CmCmUmUmGAGGCmAUmACmUmUmCmAAAdT-s-dT, antisense UfUmUfGAAGUfAUGCCUfCAAGGdT-s-dT (sense CCUUGAGGCAUACUUCAAAT; antisense UUUGAAGUAUGCCUCAAGGT; chemistry not fully specified)”, the “RL (ratio of the longest fragments) 0 h” value ([1]; 50% human plasma, 37° C., 0 h) is reported as 100.0%, the “RL (ratio of the longest fragments) 2 h” value ([1]; 50% human plasma, 37° C., 2 h) is reported as 101.5% and the “RL (ratio of the longest fragments) 4 h” value ([1]; 50% human plasma, 37° C., 4 h) is reported as 98.2%. For the same substance, the “RL (ratio of the longest fragments) 6 h” value ([1]; 50% human plasma, 37° C., 6 h) was 98.6%, the “RL (ratio of the longest fragments) 8 h” value ([1]; 50% human plasma, 37° C., 8 h) was 93.0% and the “RL (ratio of the longest fragments) 24 h” value ([1]; 50% human plasma, 37° C., 24 h) was 92.1%. The “RL (ratio of the longest fragments) 48 h” value ([1]; 50% human plasma, 37° C., 48 h) was 90.9%.
In the case of “NC-bas: negative control siRNA; sense UmUmCmUmCmCmGAACmGUmGUmCmACmGUmdTdT, antisense ACmGUfGACfACfGUfUfCfGGAGAAdTdT (sense UUCUCCGAACGUGUCACGUTT; antisense ACGUGACACGUUCGGAGAATT; chemistry not fully specified) [reference compound]”, the “RL (ratio of the longest fragments) 0 h” value [1] is reported as 100.0%, the “RL (ratio of the longest fragments) 2 h” value [1] is reported as 95.1% and the “RL (ratio of the longest fragments) 4 h” value [1] is reported as 89.8%. The “RL (ratio of the longest fragments) 6 h” value [1] was 86.8%, the “RL (ratio of the longest fragments) 8 h” value [1] was 85.3% and the “RL (ratio of the longest fragments) 24 h” value [1] was 91.1%. For the same substance, the “RL (ratio of the longest fragments) 48 h” value [1] was 90.8%.
For “X2M2(S−−): sense CmCmUmUmGAGGCmAUmACmUmUmCmAAAdTdT, antisense UfUmUfGAAGUfAUGCCUfCAAGGdTdT (as printed in the source, key not given here)”, the “RL (ratio of the longest fragments) 0 h” value ([1]; 50% human plasma, 37° C., 0 h) was 100.0%, the “RL (ratio of the longest fragments) 2 h” value ([1]; 50% human plasma, 37° C., 2 h) was 111.3% and the “RL (ratio of the longest fragments) 4 h” value ([1]; 50% human plasma, 37° C., 4 h) was 97.5%. For the same substance, the “RL (ratio of the longest fragments) 6 h” value ([1]; 50% human plasma, 37° C., 6 h) was 90.2%, the “RL (ratio of the longest fragments) 8 h” value ([1]; 50% human plasma, 37° C., 8 h) was 96.1% and the “RL (ratio of the longest fragments) 24 h” value ([1]; 50% human plasma, 37° C., 24 h) was 109.1%. For the same substance, the “RL (ratio of the longest fragments) 48 h” value ([1]; 50% human plasma, 37° C., 48 h) was 93.9%.
In the case of “1d: sense CmCmUmUmGAGGCmAUmACmUmUmCmAAAdTdT, antisense UUmUfGAAGUfAUfGCCUfCAAGGdTdT (sense mCmCmUmUrGrArGrGmCrAmUrAmCmUmUmCrArArAdTdT; antisense rUmUfUrGrArArGfUrAfUrGrCrCfUrCrArArGrGdTdT)”, the “RL (ratio of the longest fragments) 0 h” value ([1]; 50% human plasma, 37° C., 0 h) is reported as 100.0%, the “RL (ratio of the longest fragments) 2 h” value ([1]; 50% human plasma, 37° C., 2 h) is reported as 90.0% and the “RL (ratio of the longest fragments) 4 h” value ([1]; 50% human plasma, 37° C., 4 h) is reported as 97.2%. The “RL (ratio of the longest fragments) 6 h” value ([1]; 50% human plasma, 37° C., 6 h) was 93.3%, the “RL (ratio of the longest fragments) 8 h” value ([1]; 50% human plasma, 37° C., 8 h) was 87.5% and the “RL (ratio of the longest fragments) 24 h” value ([1]; 50% human plasma, 37° C., 24 h) was 55.7%. The “RL (ratio of the longest fragments) 48 h” value ([1]; 50% human plasma, 37° C., 48 h) was 65.1%.
With “A4: siRNA of CN102140461B; sense CmCmUmUmGAGGCmAUmACmUmUmCmAAAdTdT, antisense UfUmUfGAAGUfAUfGCCUfCAAGGdTdT (sense CCUUGAGGCAUACUUCAAATT; antisense UUUGAAGUAUGCCUCAAGGTT; sense: DNA at T, 2'-O-methyl at CU, RNA at AG, backbone not given here; antisense: sugars from the 5' end fmfrrrrfrfrrrfrrrrrdd, backbone not given here) [reference compound]” the “RL (ratio of the longest fragments) 0 h” value ([1]; 50% human plasma, 37° C., 0 h) was 100.0%, the “RL (ratio of the longest fragments) 2 h” value ([1]; 50% human plasma, 37° C., 2 h) was 97.5% and the “RL (ratio of the longest fragments) 4 h” value ([1]; 50% human plasma, 37° C., 4 h) was 93.7%. For the same substance, the “RL (ratio of the longest fragments) 6 h” value ([1]; 50% human plasma, 37° C., 6 h) was 106.0%, the “RL (ratio of the longest fragments) 8 h” value ([1]; 50% human plasma, 37° C., 8 h) was 91.7% and the “RL (ratio of the longest fragments) 24 h” value ([1]; 50% human plasma, 37° C., 24 h) was 90.0%. For the same substance, the “RL (ratio of the longest fragments) 48 h” value ([1]; 50% human plasma, 37° C., 48 h) was 81.2%, the “band position / full-length state on gel (FIG. 3)” value ([1]; 50% human plasma, up to 48 h) was “band thereof significantly shifts downward gradually” and the stability in blood [2] was “increased stability in blood”. The “activity at cell level compared to unmodified siRNA CA1” value (HBV gene) was “substantially equal inhibitory activity as that of siRNA CA1”.
In the case of “NC-pos: negative control siRNA; sense UmUmCmUmCCGAAmCGmUGmUmCmAmCGUdTdT, antisense AfCmGfUGACAfCGfUUCGfGAGAAdTdT (sense UUCUCCGAACGUGUCACGUTT; antisense ACGUGACACGUUCGGAGAATT; chemistry not fully specified) [reference compound]”, the “RL (ratio of the longest fragments) 0 h” value [1] is reported as 100.0%, the “RL (ratio of the longest fragments) 2 h” value [1] is reported as 93.4% and the “RL (ratio of the longest fragments) 4 h” value [1] is reported as 95.9%. The “RL (ratio of the longest fragments) 6 h” value [1] was 84.9%, the “RL (ratio of the longest fragments) 8 h” value [1] was 88.6% and the “RL (ratio of the longest fragments) 24 h” value [1] was 87.1%. The “RL (ratio of the longest fragments) 48 h” value [1] was 90.0%.
In the case of “3d: sense CmCmUmUmGAGGCmAUmACmUmUmCmAAAdTdT, antisense UfUmUGAAGUfAUfGCCUfCAAGGdTdT (sense mCmCmUmUrGrArGrGmCrAmUrAmCmUmUmCrArArAdTdT; antisense fUmUrUrGrArArGfUrAfUrGrCrCfUrCrArArGrGdTdT)”, the “RL (ratio of the longest fragments) 0 h” value ([1]; 50% human plasma, 37° C., 0 h) is reported as 100.0%, the “RL (ratio of the longest fragments) 2 h” value ([1]; 50% human plasma, 37° C., 2 h) is reported as 96.6% and the “RL (ratio of the longest fragments) 4 h” value ([1]; 50% human plasma, 37° C., 4 h) is reported as 99.6%. The “RL (ratio of the longest fragments) 6 h” value ([1]; 50% human plasma, 37° C., 6 h) was 93.3%, the “RL (ratio of the longest fragments) 8 h” value ([1]; 50% human plasma, 37° C., 8 h) was 87.1% and the “RL (ratio of the longest fragments) 24 h” value ([1]; 50% human plasma, 37° C., 24 h) was 75.0%. For the same substance, the “RL (ratio of the longest fragments) 48 h” value ([1]; 50% human plasma, 37° C., 48 h) was 41.6%.
With “8d: sense CmCmUmUmGAGGCmAUmACmUmUmCmAAAdTdT, antisense UfUmUfGAAGUAUfGCCUfCAAGGdTdT (sense mCmCmUmUrGrArGrGmCrAmUrAmCmUmUmCrArArAdTdT; antisense fUmUfUrGrArArGrUrAfUrGrCrCfUrCrArArGrGdTdT)” the “RL (ratio of the longest fragments) 0 h” value ([1]; 50% human plasma, 37° C., 0 h) was 100.0%, the “RL (ratio of the longest fragments) 2 h” value ([1]; 50% human plasma, 37° C., 2 h) was 78.2% and the “RL (ratio of the longest fragments) 4 h” value ([1]; 50% human plasma, 37° C., 4 h) was 72.7%. The “RL (ratio of the longest fragments) 6 h” value ([1]; 50% human plasma, 37° C., 6 h) was 59.7%, the “RL (ratio of the longest fragments) 8 h” value ([1]; 50% human plasma, 37° C., 8 h) was 48.3% and the “RL (ratio of the longest fragments) 24 h” value ([1]; 50% human plasma, 37° C., 24 h) was 34.0%. The “RL (ratio of the longest fragments) 48 h” value ([1]; 50% human plasma, 37° C., 48 h) was 25.9%.
